Measurements from ChEMBL document CHEMBL6127087 (Eur J Med Chem, 2024).
Calls of active or inactive are those of the source. The calls are words filed in the database; no cut-off is given here.

Key:
[1] = Half-life in male Sprague-Dawley rat at 20 mg/kg, po measured after 24 hrs by LC-MS/MS analysis; assay type: ADME, organism-based; settings: male, Sprague-Dawley, in vivo
Mus musculus [2] = test: (§1) Anti-inflammatory activity in LPS-induced male C57BL/6 mouse model of acute […] injury assessed as reduction in infiltration of immune cells by measuring decrease in lymphocytes count at 2 to 6 mg/kg, IG preadministered with compound for 7 days followed by LPS administration and measured after 24 hrs; assay type: functional, organism-based; settings: dose 2-6 mg/kg, time 8.0 day
[3] = Metabolic stability in human liver microsomes assessed as half-life preincubated for 10 mins followed by NADPH addition and measured upto 60 mins by LC-MS/MS analysis; assay type: ADME, Microsome; settings: time < 70 min
Mus musculus [4] = test: Anti-inflammatory activity in LPS-induced male C57BL/6 mouse model of acute […] injury assessed as improvement in pulmonary edema by measuring reduction in wet to dry ratio of lung at 2 to 6 mg/kg, IG preadministered with compound for 7 days followed by LPS administration and measured after 24 hrs; assay type: functional, organism-based; settings: dose 2-6 mg/kg, time 8.0 day
Mus musculus [5] = test: Anti-inflammatory activity in LPS-induced male C57BL/6 mouse model of acute […] injury assessed as reduction in IL-6 level in BALF at 2 to 6 mg/kg, IG preadministered with compound for 7 days followed by LPS administration and measured after 24 hrs by ELISA; assay type: functional, organism-based; settings: dose 2-6 mg/kg, time 8.0 day
Mus musculus [6] = test: Anti-inflammatory activity in LPS-induced male C57BL/6 mouse model of acute […] injury assessed as inhibition of CCL2 release at 2 to 6 mg/kg, IG preadministered with compound for 7 days followed by LPS administration and measured after 24 hrs by ELISA; assay type: functional, organism-based; settings: dose 2-6 mg/kg, time 8.0 day
Cytochrome P450 3A4 = Cytochrome P450 3A4 (Homo sapiens, UniProt P08684); test: Inhibition of CYP3A4 in human liver microsomes using midazolam as substrate preincubated for 10 mins followed by NADPH addition and measured after 10 mins by LC-MS/MS analysis; assay type: ADME, Microsome
Sequence of Cytochrome P450 3A4 (P08684 whole entry): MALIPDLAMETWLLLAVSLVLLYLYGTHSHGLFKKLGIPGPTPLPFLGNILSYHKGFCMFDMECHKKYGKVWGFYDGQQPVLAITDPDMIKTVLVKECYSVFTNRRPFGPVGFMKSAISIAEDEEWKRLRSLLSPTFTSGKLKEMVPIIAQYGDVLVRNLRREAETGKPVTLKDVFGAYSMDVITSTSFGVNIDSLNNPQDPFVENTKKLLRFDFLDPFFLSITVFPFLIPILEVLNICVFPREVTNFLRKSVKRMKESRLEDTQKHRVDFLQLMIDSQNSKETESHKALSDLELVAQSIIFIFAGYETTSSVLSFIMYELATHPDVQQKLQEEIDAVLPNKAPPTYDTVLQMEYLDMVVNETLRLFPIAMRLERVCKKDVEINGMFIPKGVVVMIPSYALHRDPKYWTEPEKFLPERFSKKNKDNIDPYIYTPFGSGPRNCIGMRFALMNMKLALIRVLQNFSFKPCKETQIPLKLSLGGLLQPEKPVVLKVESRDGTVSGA

Mus musculus [7] = test: Anti-inflammatory activity in LPS-induced male C57BL/6 mouse model of acute […] injury assessed as reduction in TNF-alpha level in BALF at 2 to 6 mg/kg, IG preadministered with compound for 7 days followed by LPS administration and measured after 24 hrs by ELISA; assay type: functional, organism-based; settings: dose 2-6 mg/kg, time 8.0 day
Mus musculus [8] = test: Anti-inflammatory activity in LPS-induced male C57BL/6 mouse model of acute […] injury assessed as reduction in infiltration of immune cells by measuring decrease in WBC count at 2 to 6 mg/kg, IG preadministered with compound for 7 days followed by LPS administration and measured after 24 hrs; assay type: functional, organism-based; settings: dose 2-6 mg/kg, time 8.0 day
Mus musculus [9] = test: (§2) Anti-inflammatory activity in LPS-induced male C57BL/6 mouse model of acute […] injury assessed as reduction in hyperemia of pulmonary alveolar septa in lung at 2 to 6 mg/kg, IG preadministered with compound for 7 days followed by LPS administration and measured after 24 hrs by H and E staining based histopathological analysis; assay type: functional, organism-based; settings: dose 2-6 mg/kg, time 8.0 day
Mus musculus [10] = test: as §1, with “neutrophil” for “lymphocytes”; assay type: functional, organism-based; settings: dose 2-6 mg/kg, time 8.0 day
[11] = biological target: T1, P2Y purinoceptor 14 (Homo sapiens) (UniProt Q15391); test: Antagonist activity at human P2Y14R stably expressed in HEK293 cells assessed as inhibition of UDPG-induced cAMP accumulation preincubated with compound for 30 mins followed by UDPG addition by cAMP-GloTM assay; assay type: functional, cell-based
T1 sequence (whole entry): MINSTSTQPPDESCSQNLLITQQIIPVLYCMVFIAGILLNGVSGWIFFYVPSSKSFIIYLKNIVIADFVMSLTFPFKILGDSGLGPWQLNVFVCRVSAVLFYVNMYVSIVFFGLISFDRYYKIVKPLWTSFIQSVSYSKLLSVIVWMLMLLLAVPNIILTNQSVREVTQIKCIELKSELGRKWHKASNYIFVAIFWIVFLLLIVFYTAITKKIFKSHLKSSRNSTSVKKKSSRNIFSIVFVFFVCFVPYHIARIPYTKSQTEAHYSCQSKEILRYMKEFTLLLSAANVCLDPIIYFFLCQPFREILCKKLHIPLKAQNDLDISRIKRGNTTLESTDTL

HEK-293T = test: Cytotoxicity against HEK293T cells assessed as reduction in cell survival at >10 uM incubated for 12 to 24 hrs by CCK8 assay; assay type: toxicity, cell-based; settings: human, time 12-24 hrs
[12] = Clearance in male Sprague-Dawley rat at 20 mg/kg, po measured after 24 hrs by LC-MS/MS analysis; assay type: ADME, organism-based; settings: in vivo
[13] = biological target: P2Y purinoceptor 1 (Homo sapiens) (UniProt P47900); test: Antagonist activity at human P2Y1R stably expressed in HEK293 cells assessed as inhibition of ADP-induced IP3 accumulation preincubated with compound for 30 mins followed by ADP addition by ELISA; assay type: functional, cell-based
Sequence of P2Y purinoceptor 1 (Homo sapiens) (P47900 whole entry): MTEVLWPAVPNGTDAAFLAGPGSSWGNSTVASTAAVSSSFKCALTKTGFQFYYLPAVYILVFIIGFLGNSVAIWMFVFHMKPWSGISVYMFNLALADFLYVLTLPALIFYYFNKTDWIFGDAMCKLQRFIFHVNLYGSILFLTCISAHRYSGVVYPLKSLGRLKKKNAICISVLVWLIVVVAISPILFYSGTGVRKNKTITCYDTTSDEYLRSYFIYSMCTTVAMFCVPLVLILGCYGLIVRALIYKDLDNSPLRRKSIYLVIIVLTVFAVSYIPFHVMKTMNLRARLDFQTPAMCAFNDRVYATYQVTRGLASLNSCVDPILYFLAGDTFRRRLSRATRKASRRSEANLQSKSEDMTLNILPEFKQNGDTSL

Mus musculus [14] = test: Anti-inflammatory activity in LPS-induced male C57BL/6 mouse model of acute […] injury assessed as reduction in MPO level in BALF at 2 to 6 mg/kg, IG preadministered with compound for 7 days followed by LPS administration and measured after 24 hrs by ELISA; assay type: functional, organism-based; settings: dose 2-6 mg/kg, time 8.0 day
Mus musculus [15] = test: as §2, with “inflammatory infiltration” for “hyperemia of pulmonary alveolar septa”; assay type: functional, organism-based; settings: dose 2-6 mg/kg, time 8.0 day
[16] = Stability in simulated intestinal fluid assessed as half-life; assay type: physicochemical
[17] = Oral bioavailability in male Sprague-Dawley rat at 20 mg/kg measured after 24 hrs by LC-MS/MS analysis; assay type: ADME, organism-based; settings: male, Sprague-Dawley, in vivo
Mus musculus [18] = test: Anti-inflammatory activity in LPS-induced male C57BL/6 mouse model of acute […] injury assessed as reduction in dsDNA level in BALF at 2 to 6 mg/kg, IG preadministered with compound for 7 days followed by LPS administration and measured after 24 hrs by ELISA; assay type: functional, organism-based; settings: dose 2-6 mg/kg, time 8.0 day
Mus musculus [19] = test: Anti-inflammatory activity in LPS-induced male C57BL/6 mouse model of acute […] injury assessed as reduction in infiltration of neutrophils into lung at 2 to 6 mg/kg, IG preadministered with compound for 7 days followed by LPS administration and measured after 24 hrs by immunofluorescence analysis; assay type: functional, organism-based; settings: dose 2-6 mg/kg, time 8.0 day
P2Y purinoceptor 12 = P2Y purinoceptor 12 (Homo sapiens, UniProt Q9H244); test: Antagonist activity at human P2Y12R stably expressed in HEK293 cells assessed as inhibition of MeSADP-induced cAMP accumulation preincubated with compound for 30 mins followed by MeSADP addition by cAMP-GloTM assay; assay type: functional, cell-based
Sequence of P2Y purinoceptor 12 (Q9H244 whole entry): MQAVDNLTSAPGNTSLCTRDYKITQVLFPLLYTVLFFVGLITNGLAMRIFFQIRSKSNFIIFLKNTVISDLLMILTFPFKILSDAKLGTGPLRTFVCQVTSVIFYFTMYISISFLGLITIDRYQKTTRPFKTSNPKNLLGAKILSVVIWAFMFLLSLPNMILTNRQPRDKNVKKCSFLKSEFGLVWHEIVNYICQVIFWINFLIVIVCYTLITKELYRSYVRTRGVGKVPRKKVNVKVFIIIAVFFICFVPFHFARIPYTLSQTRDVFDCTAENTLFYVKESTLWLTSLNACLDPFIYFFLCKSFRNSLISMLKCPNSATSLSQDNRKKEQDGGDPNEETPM

Mus musculus [20] = test: as §2, with “interstitial edema” for “hyperemia of pulmonary alveolar septa”; assay type: functional, organism-based; settings: dose 2-6 mg/kg, time 8.0 day
Mus musculus [21] = test: Anti-inflammatory activity in LPS-induced male C57BL/6 mouse model of acute […] injury assessed as inhibition of CXCL9 mRNA expression at 2 to 6 mg/kg, IG preadministered with compound for 7 days followed by LPS administration and measured after 24 hrs by RT-PCR analysis; assay type: functional, organism-based; settings: dose 2-6 mg/kg, time 8.0 day
Cytochrome P450 2C9 = Cytochrome P450 2C9 (Homo sapiens, UniProt P11712); test: Inhibition of CYP2C9 in human liver microsomes using diclofenac as substrate preincubated for 10 mins followed by NADPH addition and measured after 10 mins by LC-MS/MS analysis; assay type: ADME, Microsome
Sequence of Cytochrome P450 2C9 (P11712 whole entry): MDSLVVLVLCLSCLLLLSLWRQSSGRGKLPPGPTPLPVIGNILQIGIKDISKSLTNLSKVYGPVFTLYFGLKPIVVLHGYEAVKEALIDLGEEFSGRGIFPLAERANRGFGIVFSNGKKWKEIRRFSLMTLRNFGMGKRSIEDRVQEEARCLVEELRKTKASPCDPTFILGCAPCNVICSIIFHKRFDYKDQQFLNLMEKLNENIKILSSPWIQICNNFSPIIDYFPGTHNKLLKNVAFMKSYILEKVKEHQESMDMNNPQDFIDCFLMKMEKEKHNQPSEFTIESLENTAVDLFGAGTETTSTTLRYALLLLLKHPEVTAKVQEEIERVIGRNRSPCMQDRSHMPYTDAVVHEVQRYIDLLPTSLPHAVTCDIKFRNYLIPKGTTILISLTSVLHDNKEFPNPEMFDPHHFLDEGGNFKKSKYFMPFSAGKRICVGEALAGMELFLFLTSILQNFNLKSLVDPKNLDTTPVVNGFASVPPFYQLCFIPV

Cytochrome P450 2C19 = Cytochrome P450 2C19 (Homo sapiens, UniProt P33261); test: Inhibition of CYP2C19 in human liver microsomes using s-mephenytoin as substrate preincubated for 10 mins followed by NADPH addition and measured after 10 mins by LC-MS/MS analysis; assay type: ADME, Microsome
Sequence of Cytochrome P450 2C19 (P33261 whole entry): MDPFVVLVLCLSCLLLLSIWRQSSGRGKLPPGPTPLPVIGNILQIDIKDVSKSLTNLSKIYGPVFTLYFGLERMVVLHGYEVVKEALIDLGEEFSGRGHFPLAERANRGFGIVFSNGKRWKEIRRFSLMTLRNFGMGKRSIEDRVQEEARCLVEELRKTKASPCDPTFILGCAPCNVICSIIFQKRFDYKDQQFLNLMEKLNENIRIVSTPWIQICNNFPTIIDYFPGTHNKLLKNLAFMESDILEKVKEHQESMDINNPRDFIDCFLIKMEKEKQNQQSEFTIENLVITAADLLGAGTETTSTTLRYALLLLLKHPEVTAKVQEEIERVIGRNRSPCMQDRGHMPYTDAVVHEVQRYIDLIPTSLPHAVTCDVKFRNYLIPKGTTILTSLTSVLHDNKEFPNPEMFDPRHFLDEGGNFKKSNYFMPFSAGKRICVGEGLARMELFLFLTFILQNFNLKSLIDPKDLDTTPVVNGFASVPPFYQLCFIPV

- half-life [1]: 5.2 h
- half-life [3]: 3.55 h
- IC50 (Cytochrome P450 3A4): > 50 µM
- Activity [11]: inactive
- CL/F [12]: 28.3 mL/min/kg
- Activity [13]: inactive
- half-life [16]: > 5 h
- bioavailability [17]: 43%
- Activity (P2Y purinoceptor 12): inactive
- IC50 (Cytochrome P450 2C9): 23.6 µM
- IC50 (Cytochrome P450 2C19): > 50 µM
SMILES: O=C(O)CCC(=O)N1N=C(c2ccc[nH]2)CC1c1cnc2ccccc2c1 (stereo unspecified)
- Activity (Mus musculus [2]): Active
- Activity (Mus musculus [4]): Active
- Activity (Mus musculus [5]): Active
- Activity (Mus musculus [6]): Active
- Activity (Mus musculus [7]): Active
- Activity (Mus musculus [8]): Active
- Activity (Mus musculus [9]): Active
- Activity (Mus musculus [10]): Active
- Activity (HEK-293T): Non-Toxic
- Activity (Mus musculus [14]): Active
- Activity (Mus musculus [15]): Active
- Activity (Mus musculus [18]): Active
- Activity (Mus musculus [19]): Active
- Activity (Mus musculus [20]): Active
- Activity (Mus musculus [21]): Active
